Laboratory results: PMC12528448, “Resistance to CDK7 inhibitors directed by acquired mutation of a conserved residue in cancer cells” (The EMBO Journal, 2025)
Several values for one entry are separate records, joined by “and”; a condition that tells them apart may be missing. Identical values can stand only once.

Legend:
Type in all cases: cell-based, human
MCF7-CDK7-D97N cells = test: Growth assay (SRB), MCF7 CDK7-D97N knock-in; details: for % Growth: MCF7 CDK7 D99N, biological reps
Outline: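 CRISPR-Cas9 knock-in lines were treated with increasing drug concentrations two days after seeding, then grown 4 days. Cell number by SRB staining; IC50 from non-linear regression.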

22Rv1-SamR cells = test: IncuCyte confluency growth, 22Rv1-SamR; details: for % Confluency: 80nM SY1365, 22Rv1-SamR
Protocol: To determine the IC50 of drug treatments on growth, cells were seeded in 96-well culture plates. Two days after seeding, the cells were treated with increasing concentrations of drugs and incubated for 4 days. Cell number was determined using the SRB assay (Skehan et al, [1990]), and IC50 values were calculated using non-linear regression curve fitting in GraphPad Prism v10. For all other growth experiments, cells were seeded into 96-well plates, and appropriate drugs were added 2 days after seeding. Cells were then incubated in an IncuCyte Zoom live-cell imager, with cell confluency measured every 6 h. Cell doubling times were determined by non-linear curve fitting (exponential growth equation) in GraphPad Prism v10.

22Rv1 cells = test: Growth assay (SRB), 22Rv1
Outline: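 SRB: dosing at day 2 post-seed, rising concentrations, 4 d incubation, IC50 via non-linear fit. IncuCyte: drug at day 2, confluency read q6h, doubling time from exponential curve fit.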

CN(C)C/C=C/C(=O)Nc1ccc(C(=O)N[C@@]2(C)CCC[C@@H](Nc3ncc(Cl)c(-c4c[nH]c5ccccc45)n3)C2)nc1 [SY-1365]
Resistance (Fold) (MCF7-CDK7-D97N cells; MCF7-CDK7-D97N vs MCF7 WT): 0.19 fold
IC50 (MCF7-CDK7-D97N cells; MCF7-CDK7-D97N, 4 days, SRB): 0.17 nM
% Growth (MCF7-CDK7-D97N cells; Log10 Conc. (nM) 3.70, 4 days): -16.61%
% Growth (MCF7-CDK7-D97N cells; Log10 Conc. (nM) -1.12, 4 days): 78.15% and 70.71% and 82.37% and 82.39%
% Growth (MCF7-CDK7-D97N cells; Log10 Conc. (nM) -1.72, 4 days): 83.93% and 103.71% and 98.90%
% Confluency (22Rv1-SamR cells; 0 hours): 10.34% and 15.03% and 14.87%
% Confluency (22Rv1-SamR cells; 6 hours): 9.52% and 13.73% and 13.78%
% Confluency (22Rv1-SamR cells; 12 hours): 7.18% and 10.14% and 10.08%
% Confluency (22Rv1-SamR cells; 18 hours): 6.46% and 9.11% and 8.97%
% Confluency (22Rv1-SamR cells; 24 hours): 6.42% and 8.94% and 8.84%
% Confluency (22Rv1-SamR cells; 30 hours): 6.40% and 8.87% and 8.89%
% Confluency (22Rv1-SamR cells; 36 hours): 6.41% and 8.74% and 8.80%
% Confluency (22Rv1-SamR cells; 42 hours): 6.26% and 8.57% and 8.60%
% Confluency (22Rv1-SamR cells; 48 hours): 6.09% and 8.40% and 8.37%
% Confluency (22Rv1-SamR cells; 54 hours): 5.90% and 8.18% and 8.12%
% Confluency (22Rv1-SamR cells; 60 hours): 5.76% and 7.96% and 7.93%
% Confluency (22Rv1-SamR cells; 66 hours): 5.65% and 7.83% and 7.79%
% Confluency (22Rv1-SamR cells; 72 hours): 5.56% and 7.64% and 7.59%
% Confluency (22Rv1-SamR cells; 78 hours): 5.44% and 7.53%
% Confluency (22Rv1-SamR cells; 84 hours): 5.34% and 7.42% and 7.40%
% Confluency (22Rv1-SamR cells; 90 hours): 5.24% and 7.29% and 7.32%
% Confluency (22Rv1-SamR cells; 96 hours): 5.21% and 7.20% and 7.25%
% Confluency (22Rv1-SamR cells; 114 hours): 5.05% and 7.01% and 7.04%
% Confluency (22Rv1-SamR cells; 120 hours): 5.01% and 6.93% and 6.98%
% Confluency (22Rv1-SamR cells; 126 hours): 4.98% and 6.86% and 6.94%
% Confluency (22Rv1-SamR cells; 132 hours): 4.95% and 6.82% and 6.86%
% Confluency (22Rv1-SamR cells; 138 hours): 4.94% and 6.80% and 6.88%
% Confluency (22Rv1-SamR cells; 144 hours): 4.87% and 6.78% and 6.83%
Growth inhibition over time (22Rv1-SamR cells; 22Rv1-SamR, IncuCyte confluency, samuraciclib at 1.35 µM): potently growth inhibited
% Growth (22Rv1 cells; 22Rv1, Log10 Conc. (nM) 0.09): 53.71% and 72.88%
% Growth (22Rv1 cells; 22Rv1, Log10 Conc. (nM) 0.69): 19.90% and 19.70%
% Growth (22Rv1 cells; 22Rv1, Log10 Conc. (nM) 1.29): 16.91% and 19.74%
% Growth (22Rv1 cells; 22Rv1, Log10 Conc. (nM) 1.89): -7.92% and -2.43%
% Growth (22Rv1 cells; 22Rv1, Log10 Conc. (nM) 2.49): -5.73% and -3.13%
% Growth (22Rv1 cells; 22Rv1, Log10 Conc. (nM) 3.10): 1.12%
% Growth (22Rv1 cells; 22Rv1, Log10 Conc. (nM) 3.70): -11.26%
% Growth (22Rv1 cells; 22Rv1, Log10 Conc. (nM) -0.52): 94.30% and 92.75%
% Growth (22Rv1 cells; 22Rv1, Log10 Conc. (nM) -1.12): 97.77% and 104.48%
% Growth (22Rv1 cells; 22Rv1, Log10 Conc. (nM) -1.72): 103.08%
% Growth (22Rv1 cells; 22Rv1, Log10 Conc. (nM) 0.09, 4 days, biological reps): 64.96% and 59.63%
% Growth (22Rv1 cells; 22Rv1, Log10 Conc. (nM) 0.69, 4 days, biological reps): 28.69% and 25.19%
% Growth (22Rv1 cells; 22Rv1, Log10 Conc. (nM) 1.29, 4 days, biological reps): 21.21% and 16.89%
% Growth (22Rv1 cells; 22Rv1, Log10 Conc. (nM) 1.89, 4 days, biological reps): 0.26% and -4.14%
% Growth (22Rv1 cells; 22Rv1, Log10 Conc. (nM) 2.49, 4 days, biological reps): 1.87% and -4.53%
% Growth (22Rv1 cells; 22Rv1, Log10 Conc. (nM) 3.10, 4 days, biological reps): -0.83% and -4.41%
% Growth (22Rv1 cells; 22Rv1, Log10 Conc. (nM) 3.70, 4 days, biological reps): 0.68% and -4.68%
% Growth (22Rv1 cells; 22Rv1, Log10 Conc. (nM) -0.52, 4 days, biological reps): 89.73% and 90.72%
% Growth (22Rv1 cells; 22Rv1, Log10 Conc. (nM) -1.12, 4 days, biological reps): 93.97% and 90.45%
